Literature values in PMC9290462 (British Journal of Clinical Pharmacology, 2020).

Experiments:
[1] = test system: patients with moderate‐to‐severe SLE

Row | SMILES | alanine aminotransferase, aspartate aminotransferase and lipase | bleeding events (healthy volunteers) | tolerability (healthy volunteers) | primary efficacy endpoint [1]
1 | C=CC(=O)N1CCC(CNc2ncnc(N)c2-c2ccc(Oc3ccccc3)cc2)CC1 [Evobrutinib, evobrutinib] | associated with increases |  |  | 
2 | C[C@H]1CN(C2COC2)CCN1c1ccc(Nc2cc(-c3ccnc(N4CCn5c(cc6c5CC(C)(C)C6)C4=O)c3CO)cn(C)c2=O)nc1 [fenebrutinib] |  | no reported bleeding events | well tolerated | failed to meet its primary efficacy endpoint
3 | Cc1c(-c2c(F)cc(C(N)=O)c3[nH]c4c(c23)CC[C@H](C(C)(C)O)C4)cccc1-n1c(=O)c2cccc(F)c2n(C)c1=O [BMS‐986142] | associated with increases |  |  | 
